In PubChem BioAssay AID330 (DTP/NCI, 2004):
Several values for one entry are separate records, joined by “and”; a condition that tells them apart may be missing. Equal values may be shown once. Toxic doses and inconclusive results are not listed.

Test system: P388 leukemia ip, CD2F1 mice, survival T/C
Assay: NCI In Vivo Anticancer Drug Screen. Data for tumor model P388 Leukemia (intraperitoneal) in CD2F1 (CDF1) mice
Conditions: endpoint: median survival time, higher = longer survival
How it was run: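 Mice carrying the transplanted tumor received test compound or vehicle. Survival was recorded in each group, and the value is the treated-group measurement divided by that of the vehicle-treated control group.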

[1] = dose: 60.0 mg/kg/injection, schedule: Q01DX005 (ip), vehicle: saline with Tween-80
[2] = dose: 120.0 mg/kg/injection, schedule: Q01DX005 (ip), vehicle: saline with Tween-80
[3] = dose: 240.0 mg/kg/injection, schedule: Q01DX005 (ip), vehicle: saline with Tween-80
[4] = dose: 25.0 mg/kg/injection, schedule: Q01DX009 (ip), vehicle: saline with Tween-80
[5] = dose: 50.0 mg/kg/injection, schedule: Q01DX009 (ip), vehicle: saline with Tween-80
[6] = dose: 100.0 mg/kg/injection, schedule: Q01DX009 (ip), vehicle: saline with Tween-80
[7] = dose: 200.0 mg/kg/injection, schedule: Q01DX009 (ip), vehicle: saline with Tween-80
[8] = dose: 50.0 mg/kg/injection, schedule: Q01DX005 (ip), vehicle: Klucel (hydroxypropylcellulose) (HPC)
[9] = dose: 100.0 mg/kg/injection, schedule: Q01DX005 (ip), vehicle: Klucel (hydroxypropylcellulose) (HPC)
[10] = dose: 200.0 mg/kg/injection, schedule: Q01DX005 (ip), vehicle: Klucel (hydroxypropylcellulose) (HPC)

`C=C(C)C12CC(COC(=O)c3ccccc3)C34OC5(OC1C3C1OC1(CO)C(O)C1(O)C(OC(=O)c3ccccc3)C(C)C(C(C)CCCCCCC5O)C14)O2` (stereo not drawn) was tested, and the T/C (dose: 0.8 micrograms/kg/injection, schedule: Q01DX009 (ip), vehicle: Klucel (hydroxypropylcellulose) (HPC)) was 104 % of control, the T/C (dose: 1.5 micrograms/kg/injection, schedule: Q01DX009 (ip), vehicle: saline) was 99 % of control and the T/C (dose: 1.6 micrograms/kg/injection, schedule: Q01DX009 (ip), vehicle: Klucel (hydroxypropylcellulose) (HPC)) was 110 % of control. For the same compound, the T/C (dose: 3.1 micrograms/kg/injection, schedule: Q01DX009 (ip), vehicle: saline) was 99 % of control, the T/C (dose: 3.2 micrograms/kg/injection, schedule: Q01DX009 (ip), vehicle: Klucel (hydroxypropylcellulose) (HPC)) was 102 % of control and the T/C (dose: 6.2 micrograms/kg/injection, schedule: Q01DX009 (ip), vehicle: saline) was 96 % of control. The T/C (dose: 6.3 micrograms/kg/injection, schedule: Q01DX009 (ip), vehicle: Klucel (hydroxypropylcellulose) (HPC)) was 98 % of control, the T/C (dose: 12.5 micrograms/kg/injection, schedule: Q01DX009 (ip), vehicle: Klucel (hydroxypropylcellulose) (HPC)) was 112 % of control and the T/C (dose: 12.5 micrograms/kg/injection, schedule: Q01DX009 (ip), vehicle: saline with Tween-80) was 89 % of control. For the same compound, the T/C (dose: 12.5 micrograms/kg/injection, schedule: Q01DX009 (ip), vehicle: saline) was 124 % of control, the T/C (dose: 25.0 micrograms/kg/injection, schedule: Q01DX009 (ip), vehicle: Klucel (hydroxypropylcellulose) (HPC)) was 102 % of control and the T/C (dose: 25.0 micrograms/kg/injection, schedule: Q01DX009 (ip), vehicle: saline with Tween-80) was 96 % of control. For the same compound, the T/C (dose: 25.0 micrograms/kg/injection, schedule: Q01DX009 (ip), vehicle: saline) was 150 % of control, the T/C (dose: 50.0 micrograms/kg/injection, schedule: Q01DX009 (ip), vehicle: Klucel (hydroxypropylcellulose) (HPC)) was 101 % of control and the T/C (dose: 50.0 micrograms/kg/injection, schedule: Q01DX009 (ip), vehicle: saline) was 157 % of control and 159 % of control. The T/C (dose: 100.0 micrograms/kg/injection, schedule: Q01DX009 (ip), vehicle: Klucel (hydroxypropylcellulose) (HPC)) was 104 % of control and the T/C (dose: 200.0 micrograms/kg/injection, schedule: Q01DX009 (ip), vehicle: Klucel (hydroxypropylcellulose) (HPC)) was 110 % of control.

With `O=C1C2C3CCC(C2C(=O)N1COP(=O)(O)O)C1C2C(=O)N(COP(=O)(O)O)C(=O)C2C31` (stereo not drawn) the T/C (dose: 40.0 mg/kg/injection, schedule: Q01DX009 (ip), vehicle: water) was 103 % of control, the T/C (dose: 80.0 mg/kg/injection, schedule: Q01DX009 (ip), vehicle: water) was 105 % of control and the T/C (dose: 160.0 mg/kg/injection, schedule: Q01DX009 (ip), vehicle: water) was 105 % of control. The T/C (dose: 320.0 mg/kg/injection, schedule: Q01DX009 (ip), vehicle: water) was 124 % of control.

For `Cc1cc([N+](=O)[O-])ccc1NC(=O)OC(C)C`, the T/C [1] was 99 % of control, the T/C [2] was 111 % of control and the T/C [3] was 99 % of control.

In the case of `CCOC(=O)Nc1cc2c(c(N)n1)N=C(c1ccc(OC)cc1)CN2`, the T/C (dose: 1.5 mg/kg/injection, schedule: Q01DX009 (ip), vehicle: Klucel (hydroxypropylcellulose) (HPC)) is reported as 105 % of control, the T/C (dose: 6.25 mg/kg/injection, schedule: Q01DX001 (ip), vehicle: Klucel (hydroxypropylcellulose) (HPC)) is reported as 110 % of control and the T/C (dose: 6.25 mg/kg/injection, schedule: Q04DX003 (ip), vehicle: Klucel (hydroxypropylcellulose) (HPC)) is reported as 110 % of control. The T/C (dose: 12.5 mg/kg/injection, schedule: Q04DX003 (ip), vehicle: Klucel (hydroxypropylcellulose) (HPC)) was 158 % of control, the T/C (dose: 25.0 mg/kg/injection, schedule: Q01DX001 (ip), vehicle: Klucel (hydroxypropylcellulose) (HPC)) was 150 % of control and the T/C (dose: 25.0 mg/kg/injection, schedule: Q04DX003 (ip), vehicle: Klucel (hydroxypropylcellulose) (HPC)) was 163 % of control.

With `OCNC(=S)c1c(Cl)cccc1Cl` the T/C [4] was 111 % of control, the T/C [5] was 111 % of control and the T/C [6] was 109 % of control. For the same compound, the T/C [7] was 100 % of control.

For `O=C(CBr)C(=O)OCc1ccccc1`, the T/C (dose: 0.78 mg/kg/injection, schedule: Q01DX009 (ip), vehicle: water) was 100 % of control, the T/C (dose: 1.56 mg/kg/injection, schedule: Q01DX009 (ip), vehicle: water) was 99 % of control and the T/C (dose: 3.13 mg/kg/injection, schedule: Q01DX009 (ip), vehicle: water) was 94 % of control. The T/C (dose: 6.25 mg/kg/injection, schedule: Q01DX009 (ip), vehicle: water) was 102 % of control.

For `NC1=NCN(C2OC(CO)C(O)C2O)C(=O)N1` (stereo not drawn), the T/C (dose: 3.12 mg/kg/injection, schedule: Q01DX009 (ip), vehicle: saline) was 110 % of control, the T/C (dose: 3.13 mg/kg/injection, schedule: Q01DX009 (ip), vehicle: saline) was 120 % of control and the T/C (dose: 25.0 mg/kg/injection, schedule: Q01DX005 (iv), vehicle: saline) was 118 % of control. For the same compound, the T/C (dose: 25.0 mg/kg/injection, schedule: Q01DX009 (ip), vehicle: saline) was 150 % of control and 159 % of control, the T/C (dose: 50.0 mg/kg/injection, schedule: Q01DX005 (ip), vehicle: saline) was 150 % of control and the T/C (dose: 120.0 mg/kg/injection, schedule: Q01DX009 (ip), vehicle: saline) was 190 % of control. For the same compound, the T/C (dose: 140.0 mg/kg/injection, schedule: Q01DX009 (ip), vehicle: saline) was 199 % of control and 203 % of control, the T/C (dose: 160.0 mg/kg/injection, schedule: Q01DX009 (ip), vehicle: saline) was 200 % of control and the T/C (dose: 200.0 mg/kg/injection, schedule: Q01DX005 (ip), vehicle: saline) was 184 % of control. For the same compound, the T/C (dose: 400.0 mg/kg/injection, schedule: Q01DX009 (ip), vehicle: saline) was 88 % of control and 90 % of control.

`CC(C)(Br)C(=O)NN=C(c1ccccc1)c1ccccc1` was tested, and the T/C (dose: 50.0 mg/kg/injection, schedule: Q01DX009 (ip), vehicle: saline) was 100 % of control, the T/C (dose: 100.0 mg/kg/injection, schedule: Q01DX009 (ip), vehicle: saline) was 100 % of control and the T/C (dose: 200.0 mg/kg/injection, schedule: Q01DX009 (ip), vehicle: saline) was 100 % of control.

`NC(=S)N/N=C\C=N\Nc1ccccc1` was tested, and the T/C (dose: 100.0 mg/kg/injection, schedule: Q04DX003 (ip), vehicle: Klucel (hydroxypropylcellulose) (HPC)) was 100 % of control and the T/C (dose: 200.0 mg/kg/injection, schedule: Q04DX003 (ip), vehicle: Klucel (hydroxypropylcellulose) (HPC)) was 100 % of control.

For `COc1ccc(OC)c(C(N)=O)c1`, the T/C (dose: 50.0 mg/kg/injection, schedule: Q01DX009 (ip), vehicle: Klucel (hydroxypropylcellulose) (HPC)) was 102 % of control, the T/C (dose: 100.0 mg/kg/injection, schedule: Q01DX009 (ip), vehicle: Klucel (hydroxypropylcellulose) (HPC)) was 102 % of control and the T/C (dose: 200.0 mg/kg/injection, schedule: Q01DX009 (ip), vehicle: Klucel (hydroxypropylcellulose) (HPC)) was 100 % of control.

With `COc1ccc(C(C)(C)c2cc3c(cc2OCCO)OCO3)cc1` the T/C [1] was 96 % of control, the T/C [2] was 101 % of control and the T/C [3] was 105 % of control.

With `O=C(O)c1cccc([N+](=O)[O-])c1C(=O)c1ccccc1` the T/C [4] was 100 % of control, the T/C [5] was 95 % of control and the T/C (dose: 50.0 mg/kg/injection, schedule: Q04DX003 (ip), vehicle: saline with Tween-80) was 91 % of control. For the same compound, the T/C [6] was 100 % of control and the T/C (dose: 100.0 mg/kg/injection, schedule: Q04DX003 (ip), vehicle: saline with Tween-80) was 95 % of control.

For `Nc1ccc(S(=O)(=O)c2ccc(Nc3ccnc4cc(Cl)ccc34)cc2)cc1`, the T/C [8] was 100 % of control, the T/C [9] was 92 % of control and the T/C [10] was 90 % of control.

In the case of `Nc1nc(=O)n(C2CCCCO2)cc1I` (stereo not drawn), the T/C [8] is reported as 105 % of control, the T/C [9] is reported as 102 % of control and the T/C [10] is reported as 111 % of control.

With `N.O=S(=O)(O)O.[Al]` the T/C [5] was 100 % of control and the T/C [6] was 100 % of control.

In the case of `O=[N+]([O-])c1cc(S(=O)(=O)c2ccc(F)c([N+](=O)[O-])c2)ccc1F`, the T/C (dose: 3.12 mg/kg/injection, schedule: Q01DX009 (ip), vehicle: Klucel (hydroxypropylcellulose) (HPC)) is reported as 102 % of control, the T/C (dose: 6.25 mg/kg/injection, schedule: Q01DX009 (ip), vehicle: Klucel (hydroxypropylcellulose) (HPC)) is reported as 108 % of control and the T/C (dose: 12.5 mg/kg/injection, schedule: Q01DX009 (ip), vehicle: Klucel (hydroxypropylcellulose) (HPC)) is reported as 114 % of control. For the same compound, the T/C (dose: 25.0 mg/kg/injection, schedule: Q01DX009 (ip), vehicle: Klucel (hydroxypropylcellulose) (HPC)) was 108 % of control.

`CCCCc1c2cnccc2c(CCCC)c2c1[nH]c1ccccc12` was tested, and the T/C (dose: 25.0 mg/kg/injection, schedule: Q04DX002 (ip), vehicle: saline with Tween-80) was 105 % of control, the T/C (dose: 50.0 mg/kg/injection, schedule: Q04DX002 (ip), vehicle: saline with Tween-80) was 100 % of control and the T/C (dose: 100.0 mg/kg/injection, schedule: Q04DX002 (ip), vehicle: saline with Tween-80) was 96 % of control. For the same compound, the T/C (dose: 200.0 mg/kg/injection, schedule: Q04DX002 (ip), vehicle: saline with Tween-80) was 91 % of control.

`CCOC(=O)C1(Br)CCCCC1` was tested, and the T/C [5] was 109 % of control, the T/C [6] was 111 % of control and the T/C [7] was 103 % of control.
